Key:
[1] = tested on: rat duodenum, jejunum and ileum; test: In situ single-pass intestinal perfusion (SPIP); conditions: perfusate 40 μg/mL, n = 6
Description: The blank perfusion buffer solution was composed of 9.80 g Hanks’ Balanced Salts, 5.96 g 4-2(Hydroxyethyl) piperazine-1-ethanesulfonic acid (HEPES), 1.16 g NaCl, 3.50 g D-glucose and 0.37 g NaHCO3. The pH was adjusted to 6.5. […] The perfusate containing 2 μg/mL of NCE with and without 0.4% SDS was applied to three intestinal segments to investigate the effect of SDS on intestinal absorption of NCE. To examine whether there was any concentration-dependent characteristics or site specific absorption of NCE, 2, 20 and 40 μg/mL of NCE containing 0.4% SDS (w/v) were also studied in three intestinal segments using the same rat perfusion model.
Male Sprague-Dawley rats (170–230 g) were obtained from the Laboratory Animal Center, Sichuan University (Chengdu, China). Prior to the experiment, animals were fasted for at least 18 h with free access to water. All animal studies were approved and supervised by the State Key Laboratory of Biotherapy Animal Care and Use Committee (Sichuan University, Chengdu, Sichuan, China). Then, single pass intestine perfusion studies were conducted according to the literature. In brief, rats were anaesthetized by pentobarbital sodium (i.p., […]) and placed on a homeothermic pad to maintain their body temperature. After making a 3–4 cm midline abdominal incision, the small intestinal was exposed. The duodenum, jejunum and ileum were isolated as follows: duodenum segment beginning from 1 cm away from pylorus, jejunum segment beginning from 20 cm away from pylorus and ileum segment beginning at the site 20 cm upwards caecum. Each intestinal segment was approximately 10 cm long. After removing the intestinal content by rinsing with warm saline, two glass cannulas were inserted to the distal and proximal end of the segment. Then, the intestinal segments of interest were connected to a perfusion pump and the outlet tubing was placed at the same height as the inlet. The intestine was handled carefully to maintain an intact blood supply.
The segments were rinsed with perfusate at the rate of 1.0 mL/min for 10 min, and then perfused at the rate of 0.2 mL/min for 30 min to maintain a steady-state. The time was set zero immediately when the perfusion started. The outlet perfused samples were collected every 15 min until 120 min. Then, the samples were centrifuged at 1.3 × 10^4 rpm for 10 min. The supernatant was analyzed by HPLC. The length of tested segments was measured and rats were euthanized after experiment.
Peff is the quantitative parameter estimating the passage rate of a solute across a membrane. It was calculated from the steady-state concentration of NCE in the perfusate. The drug concentration in the perfusate was corrected for changes in the water flux. Meanwhile, the density corrected gravimetric method was employed to calculate the net water flux across the incubated intestinal segment. A known volume of perfusate was weighed using an electronic weighing balance to determine the density of the collected samples. After correcting for water flux, the drug concentration in the effluent perfusate (Cout(cor)), was calculated as following.
(3) Cout(cor)=Cout×Qout/Qin
where Cout is the concentration of tested drug in the effluent perfusates, Qin and Qout are the inlet and outlet flow rate (mL/min), respectively, which are adjusted for liquid density (mL/min).
The calculation of permeability across rat intestinal segment was performed from the intestinal perfusate samples collected over 15–120 min (steady state) using the following equation).
(4) Peff=-Qin ln(Cout(cor)/Cin)/2πrl

[2] = tested on: rat duodenum, jejunum and ileum; design: method as in PMID 15296954, PMID 8893271; conditions: reference compounds; cited from earlier work
rats = tested on: rats; design: method as in ref 24 = [24]; 24. Ma N. Wang J. Xu F. Li J. Li Y. Xiao H. Xiang D. Studies on absorptive characters of resveratrol derivative (e)-3,5,4′-trimethoxystilbene in rat intestine Chin. J. Pharm. Anal 2010 30 586 591; conditions: in perfusion buffer, preliminary experiments; cited from earlier work

Row | SMILES | Peff ([1]; Duodenum) | Peff ([1]; Ileum) | Peff ([1]; Jejunum) | permeability class [2] | concentration toxic to rats (rats)
1 | CNC(=C[N+](=O)[O-])NCCSCc1ccc(CN(C)C)o1 [Ranitidine, reference compound] | 0.15 ± 0.07 ^* 10^−4 cm/s | 0.17 ± 0.02 ^N.S ^* 10^−4 cm/s | 0.19 ± 0.07 ^N.S. ^* 10^−4 cm/s | low permeability | 
2 | CCCCCCCCCCCCOS(=O)(=O)[O-].[Na+] [SDS, sodium dodecyl sulfate] |  |  |  |  | higher than 1%
3 | Cn1c(=O)c2[nH]cnc2n(C)c1=O [Theophylline, reference compound] | 0.74 ± 0.02 ^* 10^−4 cm/s | 0.63 ± 0.04 ^N.S. ^* 10^−4 cm/s | 0.64 ± 0.01 ^N.S. ^* 10^−4 cm/s |  | 

Source: paper PMC4057667, “Study on Biopharmaceutics Classification and Oral Bioavailability of a Novel Multikinase Inhibitor NCE for Cancer Therapy” (International Journal of Molecular Sciences, 2014)
